From ChEMBL document CHEMBL1146841, “Discovery of thiochroman derivatives bearing a carboxy-containing side chain as orally active pure antiestrogens” (Bioorg Med Chem Lett, 2006)

Tests used:
[1] = target: T1, Estrogen receptor (Homo sapiens) (UniProt P03372); assay: Displacement of [3H]estradiol from human recombinant ERalpha relative to estradiol
T1 sequence (whole entry): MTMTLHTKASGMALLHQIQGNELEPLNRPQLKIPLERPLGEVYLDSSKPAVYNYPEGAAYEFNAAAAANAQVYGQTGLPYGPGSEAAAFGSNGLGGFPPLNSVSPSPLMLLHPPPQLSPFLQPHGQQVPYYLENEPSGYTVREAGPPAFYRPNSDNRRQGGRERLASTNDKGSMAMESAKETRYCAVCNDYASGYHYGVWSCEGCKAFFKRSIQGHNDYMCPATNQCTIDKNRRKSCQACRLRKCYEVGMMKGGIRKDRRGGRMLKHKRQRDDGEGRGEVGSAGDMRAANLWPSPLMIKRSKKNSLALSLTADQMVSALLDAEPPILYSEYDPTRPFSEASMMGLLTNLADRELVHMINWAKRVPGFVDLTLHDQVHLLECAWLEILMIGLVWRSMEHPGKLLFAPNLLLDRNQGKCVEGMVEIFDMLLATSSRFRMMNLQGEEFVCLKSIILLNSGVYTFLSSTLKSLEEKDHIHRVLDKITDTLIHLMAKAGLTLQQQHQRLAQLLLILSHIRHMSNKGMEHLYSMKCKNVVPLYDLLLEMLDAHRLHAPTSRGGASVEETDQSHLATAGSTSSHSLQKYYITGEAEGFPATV

Mus musculus [2] = assay: Antagonist activity assessed as inhibition of estrogen-stimulated uterine weight gain in ovariectomized mouse at 10 mg/kg, sc; assay type: functional; conditions: route subcutaneous
Mus musculus [3] = assay: Agonist activity assessed as increase in uterine weight in ovariectomized mouse at 10 mg/kg, sc; assay type: functional; conditions: route subcutaneous
Mus musculus [4] = assay: Antagonist activity assessed as inhibition of estrogen-stimulated uterine weight gain in ovariectomized mouse at 10 mg/kg, po; assay type: functional
Mus musculus [5] = assay: Antagonist activity assessed as inhibition of estrogen-stimulated uterine weight gain in ovariectomized mouse at 30 mg/kg, po; assay type: functional
Mus musculus [6] = assay: Antagonist activity assessed as inhibition of estrogen-stimulated uterine weight gain in ovariectomized mouse at 3 mg/kg, po; assay type: functional
Mus musculus [7] = assay: Antagonist activity assessed as inhibition of estrogen-stimulated uterine weight gain in ovariectomized mouse at 50 mg/kg, po; assay type: functional
[8] = AUC in duodenally dosed Sprague-Dawley rat portal vein at 10 mg/kg; assay type: ADME, organism-based; design: dose 10 mg/kg, route intraduodenal; conditions: portal vein plasma
[9] = AUC in duodenally dosed Sprague-Dawley rat peripheral blood at 10 mg/kg; assay type: ADME, organism-based; design: dose 10 mg/kg, route intraduodenal
Rattus norvegicus [10] = assay: AUC in Sprague-Dawley rat at 10 mg/kg, iv; assay type: ADME, organism-based, Plasma; design: dose 10 mg/kg, route intravenous; conditions: in vivo
[11] = (§1) AUC in Sprague-Dawley rat at 20 mg/kg, po; assay type: ADME, organism-based, Plasma; design: dose 20 mg/kg, route oral; conditions: Sprague-Dawley, plasma
[12] = Bioavailability in Sprague-Dawley rat; assay type: ADME, organism-based; conditions: in vivo
Rattus norvegicus [13] = assay: as §1; assay type: ADME, organism-based, Plasma; design: dose 20 mg/kg, route oral; conditions: in vivo

| Structure (SMILES) | RBA [1] [%] | inhibition in vivo at 10 mg/kg (Mus musculus [2]) [%] | Activity (Mus musculus [3]) [%] | inhibition in vivo at 10 mg/kg (Mus musculus [4]) [%] | inhibition in vivo at 30 mg/kg (Mus musculus [5]) [%] | inhibition in vivo at 3 mg/kg (Mus musculus [6]) [%] | inhibition in vivo at 50 mg/kg (Mus musculus [7]) [%] | AUC [8] [ng·h/mL] | AUC [9] [ng·h/mL] | AUC (Rattus norvegicus [10]) [ng·h/mL] | AUC [11] [ng·h/mL] | bioavailability [12] [%] | AUC (Rattus norvegicus [13]) [ng·h/mL] |
| --- | --- | --- | --- | --- | --- | --- | --- | --- | --- | --- | --- | --- | --- |
| COC(=O)C(CCCCCCCC[C@@H]1c2ccc(O)cc2SC[C@]1(C)c1ccc(O)cc1)CCCC(F)(F)C(F)(F)F (some centres undefined) | 7 | 52 | -1 | 40 |  |  |  |  |  |  |  |  |  |
| C[C@]1(c2ccc(O)cc2)CSc2cc(O)ccc2[C@H]1CCCCCCCCCC(CCCC(F)(F)C(F)(F)C(F)(F)C(F)(F)F)C(=O)O (some centres undefined) | 0.4 |  |  | 86 | 100 | 55 |  |  |  |  |  |  |  |
| C[C@]1(c2ccc(O)cc2)CSc2cc(O)ccc2[C@H]1CCCCCCCCCC(CCCCC(F)(F)C(F)(F)F)C(=O)O (some centres undefined) | 0.2 |  |  | 79 | 96 | 53 |  |  |  |  |  |  |  |
| C[C@]1(c2ccc(O)cc2)CSc2cc(O)ccc2[C@H]1CCCCCCCCCCC(CCCC(F)(F)C(F)(F)F)C(=O)O (some centres undefined) | 0.2 |  |  | 62 |  |  |  |  |  |  |  |  |  |
| C[C@]1(c2ccc(O)cc2)COc2cc(O)ccc2[C@H]1CCCCCCCCC[S+]([O-])CCCC(F)(F)C(F)(F)F (some centres undefined) | 96 | 94 | 1 | 66 |  |  | 88 |  |  |  |  |  |  |
| C[C@]1(c2ccc(O)cc2)COc2cc(O)ccc2[C@H]1CCCCCCCCCNC(=O)NCCCC(F)(F)C(F)(F)F | 57 | 77 | 10 | 1 |  |  |  |  |  |  |  |  |  |
| C[C@]1(c2ccc(O)cc2)CSc2cc(O)ccc2[C@H]1CCCCCCCCC(CCCC(F)(F)C(F)(F)C(F)(F)C(F)(F)F)C(=O)O (some centres undefined) | 0.3 |  |  | 93 | 99 | 61 |  |  |  |  |  |  |  |
| C[C@]1(c2ccc(O)cc2)COc2cc(O)ccc2[C@H]1CCCCCCCCCNS(=O)(=O)NCCCC(F)(F)C(F)(F)F | 42 | 100 | 1 | 41 |  |  | 69 |  |  |  |  |  |  |
| C[C@]1(c2ccc(O)cc2)CSc2cc(O)ccc2[C@H]1CCCCCCCCC[S+]([O-])CCCC(F)(F)C(F)(F)F (some centres undefined) | 200 | 101 | -2 | 51 |  |  | 94 | 88 | 13 | 8220 | 3590 | 22 |  |
| C[C@]1(c2ccc(O)cc2)CSc2cc(O)ccc2[C@H]1CCCCCCCCCNC(=O)NS(=O)(=O)CCCC(F)(F)C(F)(F)F | 1.2 | 33 | 8 |  |  |  |  |  |  |  |  |  |  |
| C[C@]1(c2ccc(O)cc2)CSc2cc(O)ccc2[C@H]1CCCCCCCCC(CCCCCC(F)(F)C(F)(F)F)C(=O)O (some centres undefined) | 0.8 |  |  | 86 | 94 | 52 |  |  |  |  |  |  |  |
| C[C@]1(c2ccc(O)cc2)CSc2cc(O)ccc2[C@H]1CCCCCCCCCC(CCCC(F)(F)C(F)(F)F)C(=O)O (some centres undefined) | 0.9 |  |  | 81 |  | 45 |  |  |  |  |  |  |  |
| C[C@]1(c2ccc(O)cc2)CSc2cc(O)ccc2[C@H]1CCCCCCCCCC(CCC(F)(F)C(F)(F)C(F)(F)C(F)(F)F)C(=O)O (some centres undefined) | 0.3 |  |  | 85 | 99 | 38 |  |  |  |  |  |  |  |
| C[C@]12CC[C@@H]3c4ccc(O)cc4C[C@@H](CCCCCCCCC[S+]([O-])CCCC(F)(F)C(F)(F)F)[C@H]3[C@@H]1CC[C@@H]2O (some centres undefined) [FULVESTRANT] | 138 | 95 | -1 | 54 | 72 | 29 | 86 | 56 | 7 | 5300 |  | 16 | 1670 |
| C[C@]1(c2ccc(O)cc2)CSc2cc(O)ccc2[C@H]1CCCCCCCCC(CCCC(F)(F)C(F)(F)F)C(=O)O (some centres undefined) | 0.8 | 95 | 1 | 77 | 94 | 41 |  | 2510 | 2040 | 228000 |  | 46 | 209000 |
| C[C@]1(c2ccc(O)cc2)CSc2cc(O)ccc2[C@H]1CCCCCCCC(CCCC(F)(F)C(F)(F)F)C(=O)O (some centres undefined) | 0.5 |  |  | 20 |  |  |  |  |  |  |  |  |  |
| C[C@]1(c2ccc(O)cc2)CSc2cc(O)ccc2[C@H]1CCCCCCCCCNS(=O)(=O)CCCC(F)(F)C(F)(F)F | 52 | 99 | 3 | 31 |  |  | 73 |  |  |  |  |  |  |
| C[C@]1(c2ccc(O)cc2)CSc2cc(O)ccc2[C@H]1CCCCCCCCC(CCCCC(F)(F)C(F)(F)F)C(=O)O (some centres undefined) | 1.3 |  |  | 87 | 97 | 69 |  |  |  |  |  |  |  |
| C[C@]1(c2ccc(O)cc2)CSc2cc(O)ccc2[C@H]1CCCCCCCCC(CCC(F)(F)C(F)(F)C(F)(F)C(F)(F)F)C(=O)O (some centres undefined) | 0.6 |  |  | 93 | 96 | 63 |  |  |  |  |  |  |  |
